This note sets out measurements from US10183019B2, “Treatment of cancer with dihydropyrazino-pyrazines” (Signal Pharmaceuticals, LLC, priority 2013, dated 2019).

Common to all, as to assay type: cell-based
Assay [1] deals with patient-derived GBM cell line 206. Put plainly: Sphere-Reformation Assay. The settings on record: 7 day pre-treatment, various doses. Here is the method: (§1) Tumorsphere lines 206, 217, 254 and 282 in FIGS. 1A, 1B, 1C and 1D, respectively, were dissociated and plated as single cells at a density of 50,000 cells/ml of tumorsphere media in a total of 10 mL per T-25 cell culture flask and 5 flasks per cell line. […] 60 wells were plated from each flask of cells. Tumorspheres were allowed to grow until they achieved at least 60 microns in diameter before they were counted. The percentage of tumorsphere formation was calculated as the number of tumorspheres counted divided by the number of cells seeded times the plating efficiency of the control.
(§2) Patient-derived GBM cell lines cultured under tumorsphere culture conditions maintain a highly heterogenous population of cells, including both sphere-initiating cells, as well as more committed progenitor cells with limited proliferative capabilities. To determine if Compound 1 specifically targets the sphere-initiating cell population, we performed a sphere re-formation assay after Compound 1 pre-treatment. […] Compound 1 may target both the sphere-initiating cells as well as the more committed progenitor cells thus the percentage of sphere-initiating cells in the culture remains constant after Compound 1 treatment.

Assay [2] has as its system patient-derived GBM cell line 282. Briefly: Sphere-Reformation Assay. The settings on record: 7 day pre-treatment, various doses (100 nM and 500 nM not tested). The method, then: as §1, §2
The subject of assay [3] is patient-derived GBM cell line 254. Briefly: Sphere-Reformation Assay. Here is the method: as §1, §2
The subject of assay [4] is patient-derived GBM cell line 217. Put plainly: Sphere-Reformation Assay. The settings on record: 7 day pre-treatment, various doses. The method, then: as §1, §2
The test system of assay [5] is patient-derived GBM cell line 206. Briefly: Combination effect of Compound 1 and TMZ on cell survival (fractional product). The settings on record: 168 h, 7 days, read-out: % Actual inh. From the text: (§3) TMZ is an alkylating agent that delivers a methyl group to the purine bases of DNA (O^6-guanine; N^7-guanine and N^3-adenine). The cytotoxic lesion, O^6-methylguanine (O^6-MeG), caused by TMZ can be directly removed by methylguanine methyltransferase (MGMT) via direct repair and can also activate mechanisms of mismatch repair (MMR). Futile cycles of MMR lead to the formation of double-stranded DNA breaks and activation of the DNA-PK mediated mechanisms of double-stranded break repair.
(§4) Tumorspheres grown under tumorsphere culture conditions were harvested, dissociated into single cells, and plated at 5,000 cells/well in 96-well plates. […] When the value of the column % actual inhibition divided by % inhibition calculated based on summation is >1=synergism, ˜1=summation, <1=antagonism.

In assay [6] the test system is patient-derived GBM cell line 217. The assay is described as above. The settings on record: 168 h, Cmpd 1 100 nM alone, 7 days, read-out: % Actual inh.
Excerpt: as §3, §4

For assay [7], the system named is patient-derived GBM cell line 374. Briefly: Gliomasphere Cell Number Assay. The settings on record: cell line 374, Primary, MGMT status −; 50% cell numbers vs DMSO control, Day 2 to Day 9; read-out: IC50 Cell Survival. Here is the method: (§5) Gliomasphere Cell Number Assay. Primary patient-derived GBM tumor samples were dissociated and plated under culture conditions that produce gliomaspheres (i.e. DMEM/F12 medium supplemented with B27, 20 ng/mL bFGF, 50 ng/mL EGF, penicillin/streptomycin, L-glutamine and 5 ug/mL heparin). Cells were plated at a density of 5000 cells/well and allowed to acclimate overnight at 37° C. The Dihydropyrazino-Pyrazine Compounds were added to the cultures on Day 2 and cells were kept in culture until Day 9. On Day 9, the cells were fixed with PFA/methanol and the next day assessed for cell number, using for example, SYTO-9 fluorescent DNA dye. Plates were read 48 h later with a laser scanning imager.

The subject of assay [8] is patient-derived GBM cell line 277. Briefly: Gliomasphere Cell Number Assay. The settings on record: cell line 277, Secondary/Recurrent; 50% cell numbers vs DMSO control, Day 2 to Day 9; read-out: IC50 Cell Survival. The method, then:
as §5

For assay [9], the system named is patient-derived GBM cell line 229. Briefly: Gliomasphere Cell Number Assay. The settings on record: cell line 229, Recurrent; 50% cell numbers vs DMSO control, Day 2 to Day 9; read-out: IC50 Cell Survival. Here is the method:
as §5

Assay [10] deals with patient-derived GBM cell line 393. Put plainly: Gliomasphere Cell Number Assay. The settings on record: cell line 393, Primary, MGMT status +; 50% cell numbers vs DMSO control, Day 2 to Day 9; read-out: IC50 Cell Survival. The method, then: as §5
Assay [11] has as its system patient-derived GBM cell line 296. Briefly: Gliomasphere Cell Number Assay. The settings on record: cell line 296, Recurrent, MGMT status −; 50% cell numbers vs DMSO control, Day 2 to Day 9; read-out: IC50 Cell Survival. The method, then: as §5
The subject of assay [12] is patient-derived GBM cell line 347. Put plainly: Gliomasphere Cell Number Assay. The settings on record: cell line 347, Recurrent, MGMT status −; 50% cell numbers vs DMSO control, Day 2 to Day 9; read-out: IC50 Cell Survival. The method, then:
as §5

Assay [13] concerns patient-derived GBM cell line 157. Put plainly: Gliomasphere Cell Number Assay. The settings on record: cell line 157, Primary, MGMT status −; 50% cell numbers vs DMSO control, Day 2 to Day 9; read-out: IC50 Cell Survival. The method, then:
as §5

Assay [14] concerns patient-derived GBM cell line 217. Put plainly: Gliomasphere Cell Number Assay. The settings on record: cell line 217, Primary; 50% cell numbers vs DMSO control, Day 2 to Day 9; read-out: IC50 Cell Survival. Here is the method:
as §5

Assay [15] has as its system patient-derived GBM cell line 350. Briefly: Gliomasphere Cell Number Assay. The settings on record: cell line 350, Recurrent; 50% cell numbers vs DMSO control, Day 2 to Day 9; read-out: IC50 Cell Survival. The method, then:
as §5

The subject of assay [16] is patient-derived GBM cell line 378. Briefly: Gliomasphere Cell Number Assay. The settings on record: cell line 378, Recurrent, MGMT status −; 50% cell numbers vs DMSO control, Day 2 to Day 9; read-out: IC50 Cell Survival. Here is the method: as §5

pIC50: −log10 of the molar value.

As to `CCN1C(=O)CNc2ncc(-c3ccc(-c4nc[nH]n4)nc3C)nc21` [Compound 1, 1-ethyl-7-(2-methyl-6-(1H-1,2,4-triazol-3-yl)pyridin-3-yl)-3,4-dihydropyrazino[2,3-b]pyrazin-2(1H)-one], the “number of spheres formed by cells that survived pre-treatment vs control untreated cells” value in assay [1] was “not significantly different”; in [2], “not significantly different”; in [3] (7 day pre-treatment, various doses), “not significantly different”; in [4], “not significantly different”. In addition, the “tumorsphere re-formation after pre-treatment” value in assay [3] (500 nM, 7 days) was “No tumorspheres re-formed”. Also, the inhibition at 0.05 µM in [5] (Cmpd 1 50 nM alone) was found to be 10.6%. Further, the inhibition at 0.1 µM in [5] (Cmpd 1 100 nM alone) was 23.1%; in [6], 51%. The inhibition at 0.5 µM in assay [5] (Cmpd 1 500 nM alone) worked out at 65.8%. Moreover, the pIC50 (commonly the IC50 on a negative log10 scale, so that one unit is a factor of ten) in assay [7] was 6.78; in assay [8], 6.97; in assay [9] it was 6.94; in assay [10], 6.75; in [11] it was 7.13; in assay [12] it was 6.79. Besides, the pIC50 in assay [13] is 7.33; in [14], 7.14; in assay [15], 7.00; in [16], 7.09.
